Laboratory results published in patent US11390626B2, “Pyrazolopyrimidine modulators of RAS GTPase” (Tosk, Inc., priority 2019, dated 2022).
Entries after “also recorded” stand apart in the source; their conditions may differ.

Columns and labels:
phosphorylated AKT = assay: Phosphorylated AKT western blot in SW1990 cells; type: cell-based, human; details: 24 hours with compound, EGF 10 ng/mL 15 minutes, FIG. 2
Description: Structure 1 decreased both phosphorylated AKT and phosphorylated ERK. Structure 1 had no effect on AKT or ERK (data not shown).
A method used to measure ERK and AKT is based on Welsch et al, Cell 168: 878-889 February 2017. SW1990 cells, growth driven by a G12D kRAS mutation and derived from human, pancreatic cancer cells, are plated in a 6-well plate at 1.5×10^6 cells per plate and grown overnight at 37° C. Media is replaced with serum-free media and the plate incubated an additional 24 hours. Media is replaced with media with or without compound and incubated for an additional 24 hours. EGF is added at a concentration of 10 ng/mL. After 15 minutes, cells are washed with ice cold PBS and lysed with RIPA buffer.
The lysate is processed by electrophoresis using a Mini-PROTEAN® gel mounted in a Mini-PROTEAN® Tetra Cell (cassette). Both the gel and the holding assembly (cassette) are purchased from BIORAD. The gel in the assembly is placed, electrode up, in the buffer tanks. The Tris/glycine/SDS buffer is added to both the inner buffer chamber (200 mL) and the outer buffer chamber (800 mL). […]
The membrane is placed into TTBS buffer containing SuperBlock T20 (Thermo Scientific) and incubated for 1 hour at room temperature. […] The anti pERK detected both pERK 1 and 2 (T202/Y204). […]

PI3K CD = PI3K CD (Homo sapiens, UniProt O00329); assay: Protein kinase inhibition; type: biochemical; details: tested at 3 μM
Description: (§1) The exemplary compound was also tested at 3 μM for protein kinase inhibition against the following protein kinases: AKT1, AKT2, AKT3, EGF-R, EGF-R (L858R mutation), FRAP1, GSK3B, MAPK1 (ERK2), MAPK3 (ERK1), BRAF, BRAF V599E, MAP2K1 (MEK1), MAP2K2 (MEK2), PDK1, RAF1, PI3K C2A, PI3K C2B, P13K C3, PI3K 3A, PI3K CB, PI3K CD, and PI3K CG. […] The main downstream targets for kRAS are ERK (Samatar et al., Targeting RAS-ERK signaling in cancer: promises and challenges. Nat Rev Drug Discov. 2014; 13:928-42 and Martini et al., Ann Med. 2014; 46:372-83). kRAS activates ERK and AKT leading to phosphorylated ERK and phosphorylated AKT. A compound that suppresses kRAS activity is expected to lower phosphorylated ERK and phosphorylated AKT.

PI3K 3A = PI3K 3A (Homo sapiens, UniProt P42336); assay: Protein kinase inhibition; type: biochemical; details: tested at 3 μM
Description: as §1

AKT1 = AKT1 (Homo sapiens, UniProt P31749); assay: Protein kinase inhibition; type: biochemical; details: tested at 3 μM
AKT1, sequence (P31749 whole entry, species assumed): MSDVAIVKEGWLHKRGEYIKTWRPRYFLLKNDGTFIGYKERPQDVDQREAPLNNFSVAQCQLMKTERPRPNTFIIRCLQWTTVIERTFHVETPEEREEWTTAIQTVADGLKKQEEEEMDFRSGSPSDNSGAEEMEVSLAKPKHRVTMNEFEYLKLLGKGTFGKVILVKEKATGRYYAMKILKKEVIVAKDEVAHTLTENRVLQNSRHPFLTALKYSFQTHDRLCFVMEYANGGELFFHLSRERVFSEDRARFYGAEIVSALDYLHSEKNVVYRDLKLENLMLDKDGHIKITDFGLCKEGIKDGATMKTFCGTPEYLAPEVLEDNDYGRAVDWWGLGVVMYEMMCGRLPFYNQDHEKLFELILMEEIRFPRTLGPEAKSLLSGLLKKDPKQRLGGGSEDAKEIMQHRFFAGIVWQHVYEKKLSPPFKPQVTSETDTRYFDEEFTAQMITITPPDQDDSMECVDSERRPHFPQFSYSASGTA
Description: as §1

BRAF V599E = BRAF V599E (Homo sapiens, UniProt P15056, V600E); assay: Protein kinase inhibition; type: biochemical; details: tested at 3 μM
Description: as §1

PI3K CG = PI3K CG (Homo sapiens, UniProt P48736); assay: Protein kinase inhibition; type: biochemical; details: tested at 3 μM
PI3K CG, sequence (P48736 whole entry): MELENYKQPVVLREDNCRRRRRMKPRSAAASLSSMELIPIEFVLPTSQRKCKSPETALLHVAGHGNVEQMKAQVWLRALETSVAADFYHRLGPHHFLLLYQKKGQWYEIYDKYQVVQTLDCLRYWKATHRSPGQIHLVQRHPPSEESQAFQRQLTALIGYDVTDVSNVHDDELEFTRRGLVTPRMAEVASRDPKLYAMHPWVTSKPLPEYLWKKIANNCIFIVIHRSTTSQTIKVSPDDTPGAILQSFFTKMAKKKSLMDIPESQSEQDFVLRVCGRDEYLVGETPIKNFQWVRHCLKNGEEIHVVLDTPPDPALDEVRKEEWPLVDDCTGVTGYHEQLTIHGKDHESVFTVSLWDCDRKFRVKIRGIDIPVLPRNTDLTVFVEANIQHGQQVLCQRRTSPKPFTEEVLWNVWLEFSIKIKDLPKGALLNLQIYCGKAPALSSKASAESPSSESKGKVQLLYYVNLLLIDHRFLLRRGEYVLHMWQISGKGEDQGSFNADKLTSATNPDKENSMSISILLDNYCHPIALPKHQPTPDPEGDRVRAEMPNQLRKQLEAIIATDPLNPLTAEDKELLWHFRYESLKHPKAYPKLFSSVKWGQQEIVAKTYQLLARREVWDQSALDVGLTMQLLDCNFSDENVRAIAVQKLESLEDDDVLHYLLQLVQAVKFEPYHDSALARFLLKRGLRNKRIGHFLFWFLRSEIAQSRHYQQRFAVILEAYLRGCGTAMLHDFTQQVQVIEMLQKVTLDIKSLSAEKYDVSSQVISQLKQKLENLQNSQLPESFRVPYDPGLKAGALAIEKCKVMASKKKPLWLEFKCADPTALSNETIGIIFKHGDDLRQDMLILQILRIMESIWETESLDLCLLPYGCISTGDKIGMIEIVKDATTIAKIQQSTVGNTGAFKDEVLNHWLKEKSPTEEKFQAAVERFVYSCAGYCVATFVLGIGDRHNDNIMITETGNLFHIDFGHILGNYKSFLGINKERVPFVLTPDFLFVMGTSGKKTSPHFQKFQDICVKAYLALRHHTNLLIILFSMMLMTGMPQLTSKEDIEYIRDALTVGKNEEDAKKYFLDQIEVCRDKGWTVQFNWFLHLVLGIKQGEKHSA
Description: as §1

MAP2K1 (MEK1) = MAP2K1 (MEK1) (Homo sapiens, UniProt Q02750); assay: Protein kinase inhibition; type: biochemical; details: tested at 3 μM
Description: as §1

BRAF = BRAF (Homo sapiens, UniProt P15056); assay: Protein kinase inhibition; type: biochemical; details: tested at 3 μM
Description: as §1

MAPK3 (ERK1) = MAPK3 (ERK1) (Homo sapiens, UniProt P27361); assay: Protein kinase inhibition; type: biochemical; details: tested at 3 μM
Description: as §1

EGF-R (L858R mutation) = EGF-R (L858R mutation) (Homo sapiens, UniProt P00533, L858R); assay: Protein kinase inhibition; type: biochemical; details: tested at 3 μM
Description: as §1

PI3K C2A = PI3K C2A (Homo sapiens, UniProt O00443); assay: Protein kinase inhibition; type: biochemical; details: tested at 3 μM
PI3K C2A, sequence (O00443 whole entry): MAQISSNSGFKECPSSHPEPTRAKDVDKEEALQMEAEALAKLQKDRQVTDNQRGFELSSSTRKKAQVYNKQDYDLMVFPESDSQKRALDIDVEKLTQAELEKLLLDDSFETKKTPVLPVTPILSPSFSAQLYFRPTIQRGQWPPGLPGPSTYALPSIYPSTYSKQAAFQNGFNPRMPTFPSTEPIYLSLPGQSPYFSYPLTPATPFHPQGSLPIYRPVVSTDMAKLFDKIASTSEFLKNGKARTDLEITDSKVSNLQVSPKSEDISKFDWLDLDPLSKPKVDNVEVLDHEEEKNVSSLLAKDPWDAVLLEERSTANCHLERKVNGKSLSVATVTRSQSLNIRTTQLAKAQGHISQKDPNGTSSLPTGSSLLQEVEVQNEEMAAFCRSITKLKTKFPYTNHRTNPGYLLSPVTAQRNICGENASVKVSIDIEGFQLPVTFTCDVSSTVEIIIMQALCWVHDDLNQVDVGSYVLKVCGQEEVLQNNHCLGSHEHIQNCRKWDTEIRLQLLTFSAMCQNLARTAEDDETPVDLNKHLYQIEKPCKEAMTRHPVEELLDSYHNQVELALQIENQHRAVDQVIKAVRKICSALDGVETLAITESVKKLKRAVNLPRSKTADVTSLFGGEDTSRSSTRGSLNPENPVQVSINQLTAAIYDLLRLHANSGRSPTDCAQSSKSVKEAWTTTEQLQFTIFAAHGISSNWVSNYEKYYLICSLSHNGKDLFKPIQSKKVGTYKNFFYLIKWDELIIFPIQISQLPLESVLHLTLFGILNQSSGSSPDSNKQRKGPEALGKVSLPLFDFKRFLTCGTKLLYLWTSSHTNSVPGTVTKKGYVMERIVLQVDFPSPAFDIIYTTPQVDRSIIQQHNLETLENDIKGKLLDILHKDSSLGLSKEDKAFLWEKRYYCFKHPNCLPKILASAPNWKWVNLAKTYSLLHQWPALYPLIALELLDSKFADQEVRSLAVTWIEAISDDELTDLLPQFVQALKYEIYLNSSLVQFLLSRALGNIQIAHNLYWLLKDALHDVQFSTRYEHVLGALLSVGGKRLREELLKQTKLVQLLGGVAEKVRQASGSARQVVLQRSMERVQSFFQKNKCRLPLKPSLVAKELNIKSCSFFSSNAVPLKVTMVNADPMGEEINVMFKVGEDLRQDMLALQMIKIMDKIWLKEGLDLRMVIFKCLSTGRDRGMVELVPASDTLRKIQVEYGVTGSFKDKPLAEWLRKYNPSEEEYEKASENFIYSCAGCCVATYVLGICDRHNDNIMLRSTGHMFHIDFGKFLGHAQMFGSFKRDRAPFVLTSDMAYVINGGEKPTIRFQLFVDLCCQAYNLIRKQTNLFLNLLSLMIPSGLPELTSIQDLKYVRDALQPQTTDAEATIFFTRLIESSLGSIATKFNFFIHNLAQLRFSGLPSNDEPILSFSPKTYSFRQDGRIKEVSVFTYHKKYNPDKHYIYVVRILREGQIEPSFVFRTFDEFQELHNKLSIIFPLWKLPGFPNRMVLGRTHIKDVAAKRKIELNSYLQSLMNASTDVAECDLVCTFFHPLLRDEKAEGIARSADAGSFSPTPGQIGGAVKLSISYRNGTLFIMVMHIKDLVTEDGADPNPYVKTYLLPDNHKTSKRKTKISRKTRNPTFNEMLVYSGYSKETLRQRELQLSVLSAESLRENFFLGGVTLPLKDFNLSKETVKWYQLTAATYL
Description: as §1

FRAP1 = FRAP1 (Homo sapiens, UniProt P42345); assay: Protein kinase inhibition; type: biochemical; details: tested at 3 μM
Description: as §1

PI3K C2B = PI3K C2B (Homo sapiens, UniProt O00750); assay: Protein kinase inhibition; type: biochemical; details: tested at 3 μM
PI3K C2B, sequence (O00750 whole entry): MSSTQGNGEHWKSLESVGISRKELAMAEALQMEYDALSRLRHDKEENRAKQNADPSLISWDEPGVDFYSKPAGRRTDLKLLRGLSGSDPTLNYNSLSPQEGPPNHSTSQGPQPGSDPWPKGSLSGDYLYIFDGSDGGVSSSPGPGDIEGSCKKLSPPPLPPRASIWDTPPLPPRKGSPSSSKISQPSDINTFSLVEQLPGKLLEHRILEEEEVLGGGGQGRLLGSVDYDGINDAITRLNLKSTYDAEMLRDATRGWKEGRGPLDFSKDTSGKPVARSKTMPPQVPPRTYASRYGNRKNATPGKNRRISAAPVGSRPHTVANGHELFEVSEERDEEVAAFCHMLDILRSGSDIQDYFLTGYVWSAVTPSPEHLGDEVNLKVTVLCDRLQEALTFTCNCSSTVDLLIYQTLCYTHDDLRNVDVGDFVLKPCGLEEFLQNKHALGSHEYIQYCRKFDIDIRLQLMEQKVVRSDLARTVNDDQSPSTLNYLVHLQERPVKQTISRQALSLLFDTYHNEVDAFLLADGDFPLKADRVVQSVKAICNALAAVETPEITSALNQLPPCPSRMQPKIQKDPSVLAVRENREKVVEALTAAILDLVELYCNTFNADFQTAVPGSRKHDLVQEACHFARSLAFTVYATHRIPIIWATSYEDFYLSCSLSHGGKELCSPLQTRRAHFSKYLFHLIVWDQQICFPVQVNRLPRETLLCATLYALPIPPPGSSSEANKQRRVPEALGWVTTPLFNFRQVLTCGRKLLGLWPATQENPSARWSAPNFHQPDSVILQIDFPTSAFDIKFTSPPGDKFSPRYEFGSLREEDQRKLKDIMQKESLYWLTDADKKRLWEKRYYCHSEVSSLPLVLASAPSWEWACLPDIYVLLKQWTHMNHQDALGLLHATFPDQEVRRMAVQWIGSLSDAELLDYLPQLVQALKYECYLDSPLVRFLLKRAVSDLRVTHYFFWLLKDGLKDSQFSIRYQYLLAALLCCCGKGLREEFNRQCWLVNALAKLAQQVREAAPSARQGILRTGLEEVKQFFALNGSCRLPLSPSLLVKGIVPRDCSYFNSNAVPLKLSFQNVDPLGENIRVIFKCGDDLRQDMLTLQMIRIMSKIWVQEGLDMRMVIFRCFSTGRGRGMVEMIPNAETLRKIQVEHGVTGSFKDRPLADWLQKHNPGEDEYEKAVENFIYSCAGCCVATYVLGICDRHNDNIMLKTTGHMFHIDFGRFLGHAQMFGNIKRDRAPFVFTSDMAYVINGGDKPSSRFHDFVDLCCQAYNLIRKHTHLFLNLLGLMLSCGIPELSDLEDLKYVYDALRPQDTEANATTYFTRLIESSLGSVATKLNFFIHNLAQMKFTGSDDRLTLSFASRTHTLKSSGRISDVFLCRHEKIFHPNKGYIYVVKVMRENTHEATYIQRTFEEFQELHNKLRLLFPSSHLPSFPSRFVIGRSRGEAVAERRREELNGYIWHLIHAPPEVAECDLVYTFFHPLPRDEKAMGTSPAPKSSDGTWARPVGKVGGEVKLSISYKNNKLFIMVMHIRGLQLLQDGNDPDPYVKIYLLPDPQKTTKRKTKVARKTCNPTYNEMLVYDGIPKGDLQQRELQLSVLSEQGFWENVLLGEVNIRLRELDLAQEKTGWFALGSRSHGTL
Description: as §1

PI3K CB = PI3K CB (Homo sapiens, UniProt P42338); assay: Protein kinase inhibition; type: biochemical; details: tested at 3 μM
Description: as §1

PDK1 = PDK1 (Homo sapiens, UniProt O15530); assay: Protein kinase inhibition; type: biochemical; details: tested at 3 μM
Description: as §1

P13K C3 = P13K C3 (Homo sapiens, UniProt Q8NEB9); assay: Protein kinase inhibition; type: biochemical; details: tested at 3 μM
Description: as §1

EGF-R = EGF-R (Homo sapiens, UniProt P00533); assay: Protein kinase inhibition; type: biochemical; details: tested at 3 μM
Description: as §1

MAP2K2 (MEK2) = MAP2K2 (MEK2) (Homo sapiens, UniProt P36507); assay: Protein kinase inhibition; type: biochemical; details: tested at 3 μM
Description: as §1

GSK3B = GSK3B (Homo sapiens, UniProt P49841); assay: Protein kinase inhibition; type: biochemical; details: tested at 3 μM
Description: as §1

RAF1 = RAF1 (Homo sapiens, UniProt P04049); assay: Protein kinase inhibition; type: biochemical; details: tested at 3 μM
Description: as §1

AKT3 = AKT3 (Homo sapiens, UniProt Q9Y243); assay: Protein kinase inhibition; type: biochemical; details: tested at 3 μM
Description: as §1

AKT2 = AKT2 (Homo sapiens, UniProt P31751); assay: Protein kinase inhibition; type: biochemical; details: tested at 3 μM
Description: as §1

MAPK1 (ERK2) = MAPK1 (ERK2) (Homo sapiens, UniProt P28482); assay: Protein kinase inhibition; type: biochemical; details: tested at 3 μM
Description: as §1

Cc1nc2c(-c3ccccc3)c(C)nn2c(NCc2ccccn2)c1Cc1ccccc1 [Structure 1]
Effect on phosphorylated AKT (phosphorylated AKT): decreased; also recorded: suppressed
Kinase inhibitory activity, PI3K CD (PI3K CD): No kinase inhibitory activity
Kinase inhibitory activity, PI3K 3A (PI3K 3A): No kinase inhibitory activity
Kinase inhibitory activity, AKT1 (AKT1): No kinase inhibitory activity
Kinase inhibitory activity, BRAF V599E (BRAF V599E): No kinase inhibitory activity
Kinase inhibitory activity, PI3K CG (PI3K CG): No kinase inhibitory activity
Kinase inhibitory activity, MAP2K1 (MEK1) (MAP2K1 (MEK1)): No kinase inhibitory activity
Kinase inhibitory activity, BRAF (BRAF): No kinase inhibitory activity
Kinase inhibitory activity, MAPK3 (ERK1) (MAPK3 (ERK1)): No kinase inhibitory activity
Kinase inhibitory activity, EGF-R (L858R mutation) (EGF-R (L858R mutation)): No kinase inhibitory activity
Kinase inhibitory activity, PI3K C2A (PI3K C2A): No kinase inhibitory activity
Kinase inhibitory activity, FRAP1 (FRAP1): No kinase inhibitory activity
Kinase inhibitory activity, PI3K C2B (PI3K C2B): No kinase inhibitory activity
Kinase inhibitory activity, PI3K CB (PI3K CB): No kinase inhibitory activity
Kinase inhibitory activity, PDK1 (PDK1): No kinase inhibitory activity
Kinase inhibitory activity, P13K C3 (P13K C3): No kinase inhibitory activity
Kinase inhibitory activity, EGF-R (EGF-R): No kinase inhibitory activity
Kinase inhibitory activity, MAP2K2 (MEK2) (MAP2K2 (MEK2)): No kinase inhibitory activity
Kinase inhibitory activity, GSK3B (GSK3B): No kinase inhibitory activity
Kinase inhibitory activity, RAF1 (RAF1): No kinase inhibitory activity
Kinase inhibitory activity, AKT3 (AKT3): No kinase inhibitory activity
Kinase inhibitory activity, AKT2 (AKT2): No kinase inhibitory activity
Kinase inhibitory activity, MAPK1 (ERK2) (MAPK1 (ERK2)): No kinase inhibitory activity
